From the NIST ThermoML archive (doi:10.1021/je0601513)

Experiment: excess molar enthalpy (molar enthalpy of mixing); xn = mol fraction of the nth substance listed
Settings: 101 kPa, Liquid

C[S+](C)[O-] [dimethyl sulfoxide] + CCCO
Settings	excess molar enthalpy [kcal/mol]
288.15 K, x1 = 0.042	0.0514
288.15 K, x1 = 0.0807	0.0896
288.15 K, x1 = 0.1163	0.118
288.15 K, x1 = 0.1493	0.139
288.15 K, x1 = 0.2084	0.168
288.15 K, x1 = 0.2598	0.182
288.15 K, x1 = 0.3449	0.196
288.15 K, x1 = 0.4124	0.196
288.15 K, x1 = 0.5129	0.189
288.15 K, x1 = 0.6124	0.173
288.15 K, x1 = 0.6781	0.158
288.15 K, x1 = 0.7595	0.128
288.15 K, x1 = 0.8456	0.093
288.15 K, x1 = 0.8634	0.0822
288.15 K, x1 = 0.8939	0.0676
288.15 K, x1 = 0.9267	0.0488
288.15 K, x1 = 0.9619	0.0265
298.15 K, x1 = 0.0422	0.0495
298.15 K, x1 = 0.0809	0.0875
298.15 K, x1 = 0.1166	0.117
298.15 K, x1 = 0.1497	0.141
298.15 K, x1 = 0.2089	0.167
298.15 K, x1 = 0.2604	0.182
298.15 K, x1 = 0.3456	0.199
298.15 K, x1 = 0.4131	0.201
298.15 K, x1 = 0.5137	0.194
298.15 K, x1 = 0.6131	0.175
298.15 K, x1 = 0.6787	0.16
298.15 K, x1 = 0.7602	0.134
298.15 K, x1 = 0.8086	0.111
298.15 K, x1 = 0.8638	0.0853
298.15 K, x1 = 0.8942	0.0674
298.15 K, x1 = 0.9269	0.0492
298.15 K, x1 = 0.9621	0.0265
308.15 K, x1 = 0.0421	0.0507
308.15 K, x1 = 0.0808	0.0872
308.15 K, x1 = 0.1234	0.122
308.15 K, x1 = 0.1495	0.14
308.15 K, x1 = 0.2087	0.167
308.15 K, x1 = 0.2601	0.183
308.15 K, x1 = 0.3454	0.198
308.15 K, x1 = 0.4128	0.199
308.15 K, x1 = 0.5134	0.193
308.15 K, x1 = 0.612	0.175
308.15 K, x1 = 0.6784	0.16
308.15 K, x1 = 0.7599	0.129
308.15 K, x1 = 0.8084	0.111
308.15 K, x1 = 0.8636	0.082
308.15 K, x1 = 0.8941	0.0698
308.15 K, x1 = 0.9268	0.049
308.15 K, x1 = 0.962	0.027
